Assay results from PMC6152057, “Multifunctional Cinnamic Acid Derivatives” (Molecules : A Journal of Synthetic Chemistry and Natural …, 2017).
Several values for one entry are separate records, joined by “and”; a condition that tells them apart may be missing. Equal entries are not always repeated. Entries after “also recorded” stand apart in the source; their conditions may differ.

Experiments:
[1] = Lipophilicity as RM values by RP-TLC; type: physicochemical; set-up: key: RM = log[(1/Rf) − 1]; settings: MeOH:H2O (70/30), average of at least 5 measurements
Description: Reversed phase TLC (RP-TLC) was performed on silica gel plates impregnated with 5% (v/v) liquid paraffin in light petroleum ether. The mobile phase was a methanol/water mixture (70/30, v/v). The plates were developed in closed chromatography tanks saturated with the mobile phase at 24 °C. Spots were detected under UV light. RM values were determined from the corresponding Rf values (from five individual measurements) using the equation RM = log[(1/Rf) − 1] (Table 1).

[2] = Inhibition of linoleic acid lipid peroxidation (AAPH); settings: 100 μM; AAPH-induced oxidation of sodium linoleate, pH 7.4, 37 °C; na = no activity
Description: Production of conjugated diene hydro peroxide by oxidation of sodium linoleate in an aqueous solution was monitored at 234 nm. AAPH was used as a free radical initiator. Ten microliters of the 16 mM sodium linoleate solution was added to the UV cuvette containing 930 μL of 0.05 M phosphate buffer, pH 7.4 prethermostated at 37 °C. The oxidation reaction was initiated at 37 °C under air by the addition of 50 μL of 40 mM AAPH solution. 10 μL of the appropriate solutions of the tested compounds were added in the mixture. Lipid oxidation was measured in the presence of the same level of DMSO. The rate of oxidation at 37 °C was monitored by recording the increase in absorption at 234 nm caused by conjugated diene hydro peroxides [24].

[3] = target: T1, soybean lipoxygenase (Glycine max, UniProt P08170); assay: Soybean lipoxygenase inhibition in vitro (UV-based enzyme assay); type: biochemical; settings: for IC50: sodium linoleate substrate, tris buffer pH 9, read-out: IC50 μΜ, inhibition of soybean lipoxygenase
T1 construct: purchased Sigma Chemical, Co. (St. Louis, MO, USA)
T1 sequence (P08170 1-839): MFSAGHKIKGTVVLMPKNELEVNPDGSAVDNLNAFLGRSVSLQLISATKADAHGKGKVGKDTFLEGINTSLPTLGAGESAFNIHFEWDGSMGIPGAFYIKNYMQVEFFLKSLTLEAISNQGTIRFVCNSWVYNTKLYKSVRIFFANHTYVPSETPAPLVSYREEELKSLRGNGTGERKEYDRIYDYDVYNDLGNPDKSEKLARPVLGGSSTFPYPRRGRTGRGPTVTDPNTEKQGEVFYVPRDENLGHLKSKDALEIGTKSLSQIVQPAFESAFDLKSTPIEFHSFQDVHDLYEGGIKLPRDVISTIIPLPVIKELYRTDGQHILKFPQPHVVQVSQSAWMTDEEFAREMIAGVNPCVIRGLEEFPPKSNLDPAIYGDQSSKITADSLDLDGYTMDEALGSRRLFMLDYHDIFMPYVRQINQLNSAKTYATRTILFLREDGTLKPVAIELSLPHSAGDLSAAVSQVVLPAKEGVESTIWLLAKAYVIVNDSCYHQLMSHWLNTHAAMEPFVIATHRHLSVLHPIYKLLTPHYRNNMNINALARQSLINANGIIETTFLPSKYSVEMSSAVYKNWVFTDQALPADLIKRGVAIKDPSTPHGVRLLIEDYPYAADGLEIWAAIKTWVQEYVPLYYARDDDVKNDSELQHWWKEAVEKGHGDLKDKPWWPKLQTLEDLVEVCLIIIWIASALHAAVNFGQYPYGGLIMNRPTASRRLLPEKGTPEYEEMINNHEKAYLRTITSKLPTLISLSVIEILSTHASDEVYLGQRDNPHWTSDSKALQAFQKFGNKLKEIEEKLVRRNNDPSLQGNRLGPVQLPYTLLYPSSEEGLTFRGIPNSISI
Description: The tested compounds were dissolved in DMSO (10 μL) and incubated at room temperature with sodium linoleate (100 mM) and 0.2 mL of enzyme solution (1/9 × 10^−4 w/v in saline) in buffer pH 9 (tris) at room temperature (final volume 1 mL). […] Several concentrations were used for the determination of IC50 values.

[4] = target: T2, trypsin (Bos taurus, UniProt P00760); assay: Inhibition of trypsin induced proteolysis in vitro (modified Kunitz method); type: biochemical, bovine; settings: for IC50: bovine albumin substrate, pH 7.6, 37 °C, read-out: IC50 μΜ, inhibition of trypsin induced proteolysis
T2 construct: purchased Sigma Chemical, Co. (St. Louis, MO, USA); host or cells: bovine pancreas
T2 sequence (P00760 24-246): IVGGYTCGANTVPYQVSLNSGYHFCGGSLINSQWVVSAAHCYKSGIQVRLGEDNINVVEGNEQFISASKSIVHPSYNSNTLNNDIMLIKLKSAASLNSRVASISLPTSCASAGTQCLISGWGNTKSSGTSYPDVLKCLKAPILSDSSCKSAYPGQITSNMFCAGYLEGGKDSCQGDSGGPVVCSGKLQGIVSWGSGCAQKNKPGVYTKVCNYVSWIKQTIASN
Description: All chemicals, solvents, chemical and biochemical reagents were of analytical grade and purchased from commercial sources (Merck, Merck KGaA, Darmstadt, Germany, Fluka Sigma-Aldrich Laborchemikalien GmbH, Hannover, Germany, Alfa Aesar, Karlsruhe, Germany and Sigma, St. Louis, MO, USA). Soybean lipoxygenase, pancreatic bovine trypsin, sodium linoleate, 2,2-azobis (2-amidinopropane) dihydrochloride (AAPH) were obtained from Sigma Chemical, Co. (St. Louis, MO, USA).
The test was carried out according to a modified Kunitz method. Bovine albumin was used as substrate for trypsin [24]. The reaction mixture consisted of 200 μL of 0.075 mg/mL trypsin and 780 μL of phosphate buffer pH 7.6 (including the tested compounds (20 μL in DMSO, final concentration 100 μM) preincubated at 37 °C for 20 min and then 1 mL of albumin (stock solution 6 g/100 mL in phosphate buffer 0.1 M, pH 7.6) was added and incubated at 37 °C for 30 min. After the incubation 1 mL of 5% trichloroacetic acid was added to the incubated solution to stop the enzyme’s reaction and allowed to set at room temperature for 1 h. Then the solution was filtered and the absorption of the filtered solution was measured at 280 nm.

[5] = system: L929 mouse fibroblasts cells; assay: Cytotoxicity, propidium iodide fluorescence method; type: cell-based; settings: 24 h incubation, 1–100 μM
Description: The cytotoxicity of the synthesized derivatives was determined using the propidium iodide (PI) fluorescence method in the presence of different concentrations (1–100 μM) of these compounds. L929 mouse fibroblasts cells were used in this work since they have been previously used in the study of the pharmacological effects of antioxidant and anti-inflammatory agents. The cytotoxicity results of the new compounds against normal cells (such as the L929 fibroblasts) would give useful information as only non-cytotoxic compounds should be further evaluated as potential antioxidant drugs. The results are presented in Figure 1 in the form of the % cell survival values as propidium iodide % (PI)—values PI% for the examined compounds.
L929 mouse fibroblasts cells were cultured in EMEM supplemented with 10% horse serum, 2 mM L-glutamine, 1 mM sodium pyruvate, 0.1 mM nonessential amino acids, 1.5 g/L sodium bicarbonate and 100 μg/mL penicillin–streptomycin at 37 °C in a humidified atmosphere with 5% CO2. L929 cells were plated into 24-well plates at a density […] and allowed to attach and grow for 24 h. […] After 24 h incubation, the supernatant was removed and the cells were washed with PBS. […] The PI fluorescence (cell death) was determined with flow cytometry, FACS Calibur, Coulter Epics XL-MCL (Beckman, Inc., Mount Holly, NJ, USA). […]

Molecule | RM (±SD) [1] | ILP% @100 μΜ (% inhibition of lipid peroxidation) [2] | IC50 [3] [µM] | Anti-proteolytic activity, trypsin inhibition (in words) [4] | IC50 [4] [nM] | melting point [°C] | Cytotoxicity on L929 cells as PI% values (in words) [5] | Soybean LOX inhibition (in words) [3] | inhibition at 100 µM ([3]; 100 μM, na = no activity under the reported experimental conditions, read-out: LOX Inh. % @ 100 μΜ) [%] | inhibition at 100 µM ([4]; 100 μM, na = no activity under the reported experimental conditions, read-out: Trypsin Inh. % @100 μM) [%]
3,4-dimethoxycaffeic acid [Compound 3] | −0.869 ± 0.0614 | 86% | – | – | – | – | – | – | – | –
CC(C)NCC(O)COc1ccc(CC(N)=O)cc1 (stereo not shown) [Atenolol, atenolol, reference compound] | – | – | 22.5 | did not present any activity | – | – | – | – | – | –
O=C(O)/C=C/c1ccccc1 [Compound 1, cinnamic acid] | −0.485 and −0.485 ± 0.044 | 78% | – | – | – | – | – | – | – | –
CC(C)N(CC(O)COc1ccc(CC(N)=O)cc1)C(=O)/C=C/c1ccccc1 (stereo not shown) [Compound 1a] | −0.720 and −0.720 ± 0.012 | 97% | 66 | – | 315 | 102 to 105 | – | – | – | –
CC(C)N(CC(O)COc1cccc2ccccc12)C(=O)/C=C/c1ccccc1 (stereo not shown) [Compound 1b, (E)-N-(2-hydroxy-3-(naphthalen-1-yloxy)propyl)-N-isopropylcinnamamide] | 0.411 and 0.411 ± 0.061 | 69% | 50 | – | 10000 | – | remarkable cytotoxicity | – | – | –
O=C(/C=C/c1ccccc1)OC12CC3CC(CC(C3)C1)C2 [Compound 1c, (E)-adamantan-1-yl cinnamate] | 0.911 and 0.911 ± 0.0112 | – | – | – | 49000 | 183 to 185 | – | low or no activity; also recorded: inactive | – | –
O=C(/C=C/c1ccccc1)Oc1cccc2ccccc12 [Compound 1d, (E)-naphthalen-1-yl cinnamate] | 0.0889 ± 0.002 | inactive | 27.5 | – | – | 210 to 212 | – | low or no activity | – | –
O=C(/C=C/c1ccccc1)OCCN(Cc1ccccc1)C(=O)/C=C/c1ccccc1 [Compound 1f, 2-(N-benzylcinnamamido) ethyl cinnamate] | 0.1402 ± 0.0227 | inactive | – | – | 100000 | – | – | low or no activity | 20 | –
O=C(O)/C=C/c1cccc(Oc2ccccc2)c1 [Compound 2, (E)-3-(3-phenoxyphenyl)acrylic acid] | −0.41 ± 0.016 | 84% | 66 | – | – | – | – | – | – | –
CC(C)N(CC(O)COc1ccc(CC(N)=O)cc1)C(=O)/C=C/c1cccc(Oc2ccccc2)c1 (stereo not shown) [Compound 2a] | 0.128 ± 0.0204 | 86% | 35 | – | 325 | – | remarkable cytotoxicity | – | – | –
CC(C)N(CC(O)COc1cccc2ccccc12)C(=O)/C=C/c1cccc(Oc2ccccc2)c1 (stereo not shown) [Compound 2b, (E)N-(2-hydroxy-3-(naphthalen-1-yloxy)propyl)-N-isopropyl-3-(3phenoxyphenyl) acrylamide] | 0.907 and 0.907 ± 0.008 | 84% | 6 | – | 425 | 118 to 120 | – | – | – | –
COc1ccc(/C=C/C(=O)N(CC(O)COc2ccc(CC(N)=O)cc2)C(C)C)cc1OC (stereo not shown) [Compound 3a] | −0.841 and −0.841 ± 0.0014 | 86% | 10 | – | 1000 | 176 to 178 | – | – | – | –
COc1ccc(/C=C/C(=O)N(CC(O)COc2cccc3ccccc23)C(C)C)cc1OC (stereo not shown) [Compound 3b, (E)-3-(3,4-dimethoxyphenyl)-N-(2-hydroxy-3-(naphthalen-1-yloxy)propyl)-N-isopropylacrylamide] | 0.0819 and 0.0819 ± 0.01 | 71% | 10 | – | 516 | 172 to 174 | – | – | – | –
CC(C)N(C[C@H](O)COc1cccc2ccccc12)C(=O)/C=C/c1cccc(Oc2ccccc2)c1 [Compound S-2b, (S)-N-(2-hydroxy-3-(naphth-1-yloxy)propyl)-N-isopropyl-3-(3-phenoxyphenyl) acrylamide] | – | 86% | 6 | – | 2750 | – | – | – | – | –
O=C(O)c1ccccc1O [Salicylic acid, reference compound] | – | – | – | – | – | – | – | – | – | 53.6
Cc1c(C)c2c(c(C)c1O)CCC(C)(C(=O)O)O2 (stereo not shown) [Trolox, reference compound] | – | 93% | – | – | – | – | – | – | – | –
(E)-2-(benzylamino) ethyl 3-phenylacrylate [Compound 1e] | −0.374 ± 0.0176 | – | 100 | – | – | – | – | low or no activity | – | –
